The numbers were not newly measured in patent US7858803B2, “Imaging tracers for early detection and treatment of amyloid plaques caused by Alzheimer's disease and related disorders” (The General Hospital Corporation, priority 2007, dated 2010), which cites them from elsewhere.

Structures are written as SMILES.

Series [1] concerns brain amyloid deposits. As to conditions: APP23 transgenic mice, brain sections at 180 min after iv injection.
The conditions of series [2]: normal mice, iv, at 2 min after injection.

With `CNc1ccc(C=Cc2nc3ccc(OCCF)cc3o2)cc1` [BF-168, 6-(2-fluoroethoxy)-2-[2-(4-methylaminophenyl)ethenyl]-benzoxazole], the “labeling of brain amyloid deposits in autoradiograms” value in series [1] is “selective labeling of brain amyloid deposits with little non-specific binding”. The initial brain uptake in series [2] is given as 3.9 % injected dose/gm.
